Results published in patent US11401255B2, “Small molecule activators of Parkin enzyme function” (Mayo Foundation for Medical Education and Research, priority 2016, dated 2022).

Tests used:
[1] = target: T1, Parkin (Homo sapiens (Human), UniProt O60260); assay: Thermal shift (protein melting) assay; type: binding; settings: 500 nM compound, 50 ng purified Parkin, SYPRO orange
Description: FIGS. 15A-15H show Parkin activation in primary fibroblasts, neuronal cells and in vitro. Positive control (PC) cells were treated with DMSO and 10 μM of CCCP. Negative control (NC) cells were treated with 3.5 μM CCCP, some cells were left untreated (−). […] Vinculin was used as loading control. […] FIG. 15C: Human fibroblasts were directly converted to neurons and treated as in FIG. 15B. […] Beta III tubulin confirmed successful conversion of fibroblasts to iNeurons. FIG. 15D: Rat PC12 cells were treated as in FIG. 15A. Western blots show enhanced ubiquitylation of MFN2 and TOM70, and robust pSer65-Ub induction similar to PC, but not NC cells. FIG. 15E: In vitro E2 discharge assay. Recombinant Parkin was pre-incubated with compound 4 or DMSO as control and was mixed to Ub-loaded UbcH7. […] Control reactions were performed without PINK1 or Parkin. FIG. 15F: In vitro assay with isolated mitochondria from untreated or CCCP-treated HeLa cells lacking Parkin. […]
To validate direct binding of activating compounds to Parkin as predicted from the in silico approach, a thermofluor shift assay was used. Recombinant purified Parkin was mixed together with compound 4 or DMSO as a control and the melting temperature was monitored using SYPRO Orange dye.
The thermal shift assay was performed as follows. […] Data was exported and analyzed using the Protein Melting Analysis tool (Roche Applied Science).

[2] = target: T1, Parkin; assay: In vitro ubiquitylation assay with isolated mitochondria; type: biochemical; settings: mitochondria from CCCP-treated HeLa cells lacking Parkin, vs DMSO
Description: FIGS. 15A-15H show Parkin activation in primary fibroblasts, neuronal cells and in vitro. Positive control (PC) cells were treated with DMSO and 10 μM of CCCP. Negative control (NC) cells were treated with 3.5 μM CCCP, some cells were left untreated (−). […] Vinculin was used as loading control. […] FIG. 15C: Human fibroblasts were directly converted to neurons and treated as in FIG. 15B. […] Beta III tubulin confirmed successful conversion of fibroblasts to iNeurons. FIG. 15D: Rat PC12 cells were treated as in FIG. 15A. Western blots show enhanced ubiquitylation of MFN2 and TOM70, and robust pSer65-Ub induction similar to PC, but not NC cells. FIG. 15E: In vitro E2 discharge assay. Recombinant Parkin was pre-incubated with compound 4 or DMSO as control and was mixed to Ub-loaded UbcH7. […] Control reactions were performed without PINK1 or Parkin. FIG. 15F: In vitro assay with isolated mitochondria from untreated or CCCP-treated HeLa cells lacking Parkin. Mitochondrial preparations were mixed with recombinant Parkin, E1, UbcH7, ATP and either compound 4 or DMSO as a control and incubated for the indicated times. […] Control samples were incubated in reaction mix without Parkin. […]
The in vitro assays with mitochondrial preparations were performed as follows. […] The mitochondrial pellet was resuspended in solution B and the protein concentration determined by BCA. […]

T1 sequence (O60260 whole entry): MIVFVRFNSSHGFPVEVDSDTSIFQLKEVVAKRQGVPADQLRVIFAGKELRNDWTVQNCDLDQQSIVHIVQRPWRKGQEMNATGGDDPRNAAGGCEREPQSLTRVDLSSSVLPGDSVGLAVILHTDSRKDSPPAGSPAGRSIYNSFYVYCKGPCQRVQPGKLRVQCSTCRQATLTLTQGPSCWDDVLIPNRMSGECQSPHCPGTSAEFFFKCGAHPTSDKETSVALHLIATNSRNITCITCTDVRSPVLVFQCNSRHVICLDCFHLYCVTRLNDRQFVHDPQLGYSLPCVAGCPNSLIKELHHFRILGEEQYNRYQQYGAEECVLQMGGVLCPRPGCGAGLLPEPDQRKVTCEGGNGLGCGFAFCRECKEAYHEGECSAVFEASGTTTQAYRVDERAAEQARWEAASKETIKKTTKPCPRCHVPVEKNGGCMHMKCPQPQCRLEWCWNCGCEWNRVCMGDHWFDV

O=C(Cn1ccnc1-c1ccccn1)Nc1ccc(-c2ccccc2)cc1 [Compound 4]
Parkin melting temperature shift [1]: 3 °C
MFN1 ubiquitylation [2]: increased ubiquitylation
